Consider 1 molecule from ChEMBL document CHEMBL1201862, “PubChem BioAssay data set” (2004).

Test in all cases: inhibition of tumour cell growth, NCI panel, 48 h
Test [1] deals with Malme-3M.
Test [2] concerns SN12C.
For test [3], the system named is HOP-92.
The test system of test [4] is A549.
For test [5], the system named is HCT-15.
Test [6] has as its system HOP-62.
Test [7] concerns CCRF-CEM.
Test [8] concerns M14.
The subject of test [9] is SF-268.
The subject of test [10] is SW-620.
The test system of test [11] is Hs-578T.
Test [12] relates to U-251.
In test [13] the test system is HT-29.
In test [14] the test system is MDA-N.
For test [15], the system named is ACHN.
Test [16] deals with HCC 2998.
Test [17] concerns OVCAR-8.
For test [18], the system named is K562.
Test [19] deals with HL-60.
Test [20] has as its system KM12.

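Method: 48-hour compound exposure of cells in 96-well plates, five concentrations, linear interpolation of endpoints. The concentration for 50% growth inhibition is given as GI50.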 Active and inactive are the calls of the source. No stated cut-off is given here; in the data, active = GI50 up to about 1.1 µM and inactive = higher.

As for `CC(=O)OC1CC[C@]2(C)C3CC[C@@]4(C)C(CCC4[C@H](C)CCCC(C)C)[C@@H]3CCC2(Br)C1` (stereo not given in full), the GI50 in [1] is 10.9 µM (inactive); in [2], 22.5 µM (inactive); in test [3], 19.7 µM (inactive); in test [4], 19.8 µM (inactive); in test [5], 15.1 µM; in test [6], > 50 µM (inactive). Also, the GI50 in [7] is 10.2 µM (inactive); in [8], 18.5 µM (inactive); in test [9] it was 11.7 µM (inactive); in test [10], 9.42 µM (inactive); in test [11] it was 10.1 µM (inactive); in test [12], 17.9 µM (inactive). Also, the GI50 in test [13] was 17.5 µM (inactive); in test [14], 20.1 µM (inactive); in [15], 9.91 µM (inactive); in test [16], > 50 µM (inactive); in [17], 10.8 µM (inactive); in [18], 15.5 µM (inactive). Also, the GI50 was 9.59 µM (inactive) in test [19] and 21.4 µM (inactive) in test [20].
